{
  "source": "patent US4997825A",
  "about": "“Synergistic treatment method” (Eli Lilly and Company, priority 1989, dated 1991)",
  "key": {"growth hormone [1]": {"system": "growth hormone", "details": "intravenously, normal men; cited from earlier work"}, "growth hormone [2]": {"system": "growth hormone", "details": "rats, Rhesus monkeys, rabbits, sheep, cattle and chickens, as well as humans; cited from earlier work"}, "growth hormone [3]": {"system": "growth hormone", "details": "steers, finishing diet with 10 mg/head/day; cited from earlier work"}, "[4]": {"system": "growth hormone concentration", "details": "large doses, normal men, measured fasting; cited from earlier work"}, "Plasma GH [5]": {"system": "Plasma GH", "assay": "Plasma growth hormone in wethers during 5-day continuous infusion of hGRF (acid form) through a jugular cannula, with or without estradiol implant; radioimmunological analysis", "type": "in vivo", "details": "no hGRF (Control), estradiol implant about 25 mcg/day", "protocol": "Wethers weighing about 32 kg were confined in metabolism crates for about 7 days before the experiment began. […] Two days before the start of the treatment schedule, a Silastic (Dow Corning Corporation) cannula was inserted in each jugular vein of each wether. Four animals, two implanted and two unimplanted, were assigned to three GRF treatments, 1.5 mg/day, 0.33 mg/day and control. The GRF which was used was hGRF in the acid form, synthesized by solid phase synthetic methodology according to the general procedure of Merrifield et al., Biochemistry 21, 5020 (1982).\nGRF was infused through one of the cannulae continuously for 5 days to the treated wethers, using a Harvard peristaltic pump. The GRF was diluted in physiological saline to a concentration such that the actual delivery rate was 0.5 ml of infusate per minute.\nSix blood samples were collected from each wether each day, beginning 1 day before the start of infusion and continuing 1 day after the end of it. Two samples were obtained within 1 hour just before the beginning of each 1-hour ad libitum meal, and 1 sample was taken at the end of each meal. The animals received two 1-hour meals daily at 12 hour intervals. Additional blood samples were taken 1 hour before, just before, 10 minutes after and 60 minutes after the start of infusion. At the end of the infusion period, additional blood samples were obtained at 10, 20, 30 and 60 minutes after the termination of infusion.\nThe plasma was separated from the other components of the blood samples, and was analyzed for growth hormone by a standard radioimmunological procedure.\nThe table below reports the growth hormone levels in the animals, reported as means of all of the analyses in the stated time period. The data from animals which were implanted with estradiol are indicated by \"+\" in the column headed Estradiol."}, "Plasma GH [6]": {"system": "Plasma GH", "assay": "Plasma growth hormone in lambs during subcutaneous infusion of hGRF analog (serine at position 27), with or without estradiol implant", "type": "in vivo", "details": "no hGRF (Control)", "protocol": "This experiment was carried out substantially according to the scheme of Example 1. In this test, the GRF was a hGRF analog having serine in place of methionine at position 27; the GRF was prepared by recombinant methods. Four rates of hGRF were used, 0.75, 1.5 and 3.0 mg/day, and controls.\nThe hGRF was infused through a subcutaneous Silastic cannula using an IVAC model 630 pump (IVAC Corporation, San Diego). The hGRF was diluted in physiological saline to provide concentrations such that 48 ml/day of each infusate could be supplied to each animal."}},
  "note": "Like-named read-outs stand apart in the source and are kept apart here. No end group written: not given here.",
  "data": [
    {"compound": "C#C[C@]1(O)CC[C@H]2[C@@H]3CCc4cc(O)ccc4[C@H]3CC[C@@]21C", "note": "[Ethinyl estradiol]", "values": [
      {"measurement": "growth hormone", "setting": "growth hormone [1]", "value": "significant increase in growth hormone in 5 of 6 patients"}
    ]},
    {"compound": "endogenous human GRF: GRF naturally produced by humans; peptide of 43 or 44 amino acids (YADAIFTNSYRKVLGQLSARKLLQDIMSRQQGESNQERGARARL; ends and bridges not checked; UniProt P01286 32-75, looked up)", "values": [
      {"measurement": "GRF activity across species", "setting": "growth hormone [2]", "value": "active"}
    ]},
    {"compound": "hGRF40 acid: human GRF analog having 40 amino acids and a free acid terminal (YADAIFTNSYRKVLGQLSARKLLQDIMSRQQGESNQERGA-OH; UniProt P01286 32-71, looked up, fragment)", "values": [
      {"measurement": "GRF activity across species", "setting": "growth hormone [2]", "value": "active"}
    ]},
    {"compound": "CC/C(=C(/CC)c1ccc(O)cc1)c1ccc(O)cc1", "note": "[stilbestrol]", "values": [
      {"measurement": "growth hormone", "setting": "growth hormone [3]", "value": "increased growth hormone"}
    ]},
    {"compound": "CC/C(=C(/CC)c1ccc(O)cc1)c1ccc(O)cc1", "note": "[diethylstilbestrol]", "values": [
      {"measurement": "growth hormone concentration", "setting": "[4]", "value": "increased growth hormone concentration"}
    ]},
    {"compound": "C[C@]12CC[C@@H]3c4ccc(O)cc4CC[C@H]3[C@@H]1CC[C@@H]2O", "note": "[Estradiol, estradiol]", "values": [
      {"measurement": "Plasma GH, Infusion Period Day 1", "setting": "Plasma GH [5]", "value": 3.3, "unit": "ng/mL"},
      {"measurement": "Plasma GH, Infusion Period Day 2", "setting": "Plasma GH [5]", "value": 4.3, "unit": "ng/mL"},
      {"measurement": "Plasma GH, Infusion Period Day 3", "setting": "Plasma GH [5]", "value": 2.9, "unit": "ng/mL"},
      {"measurement": "Plasma GH, Infusion Period Day 4", "setting": "Plasma GH [5]", "value": 5.2, "unit": "ng/mL"},
      {"measurement": "Plasma GH, Infusion Period Day 5", "setting": "Plasma GH [5]", "value": 4.2, "unit": "ng/mL"},
      {"measurement": "Plasma GH, Posttreatment", "setting": "Plasma GH [5]; day after infusion", "value": 2.4, "unit": "ng/mL"},
      {"measurement": "Plasma GH, Pretreatment", "setting": "Plasma GH [5]; mean of analyses, day before infusion", "value": 2.8, "unit": "ng/mL"},
      {"measurement": "Plasma GH, Infusion Period Day 1", "setting": "Plasma GH [6]", "value": 5.9, "unit": "ng/mL"},
      {"measurement": "Plasma GH, Infusion Period Day 2", "setting": "Plasma GH [6]", "value": 10.0, "unit": "ng/mL"},
      {"measurement": "Plasma GH, Infusion Period Day 3", "setting": "Plasma GH [6]", "value": 6.2, "unit": "ng/mL"},
      {"measurement": "Plasma GH, Infusion Period Day 5", "setting": "Plasma GH [6]", "value": 8.8, "unit": "ng/mL"},
      {"measurement": "Plasma GH, Posttreatment", "setting": "Plasma GH [6]", "value": 8.7, "unit": "ng/mL"},
      {"measurement": "Plasma GH, Pretreatment", "setting": "Plasma GH [6]", "value": 11.6, "unit": "ng/mL"}
    ]}
  ]
}
